{"source": "patent US20240174624A1", "about": "“CHIRAL N-(1,3,4-OXADIAZOLE-2-YL)PHENYL CARBOXYLIC ACID AMIDES AND THEIR USE AS HERBICIDES” (Bayer Aktiengesellschaft, priority 2021, published 2024)", "key": {"POLCO": {"test_system": "POLCO", "assay": "Pre-emergence herbicidal action", "assay_type": "in vivo, Polygonum convolvulus", "details": "320 g a.i./ha, comparative experiment", "source_text": "(§1) Seeds of monocotyledonous and dicotyledonous weed plants and crop plants are laid out in sandy loam soil in wood-fibre pots and covered with soil. The compounds of the invention, formulated in the form of wettable powders (WP) or as emulsion concentrates (EC), are then applied to the surface of the covering soil in the form of an aqueous suspension or emulsion at a water application rate equivalent to 600 to 800 l/ha, with addition of 0.2% wetting agent. After the treatment, the pots are placed in a greenhouse and kept under good growth conditions for the trial plants. The damage to the test plants is scored visually after a test period of 3 weeks by comparison with untreated controls (herbicidal activity in percent (%): 100% activity=the plants have died, 0% activity=like control plants). […] The tables below illustrate, in an illustrative manner, the post-emergence herbicidal action of the compounds of the invention, the herbicidal activity being stated in percent. In the experiments that follow, the herbicidal action of the compounds of the invention and that of the corresponding known racemic compounds closest from WO2012126932 and WO2018202535 were compared under the above-specified conditions by the pre-emergence and post-emergence method. The example numbers given in the tables relate to the compounds disclosed in the respective documents."}, "STEME [1]": {"test_system": "STEME", "assay": "Pre-emergence herbicidal action", "assay_type": "in vivo, Stellaria media", "details": "comparative experiment", "source_text": "as §1"}, "CYPES [2]": {"test_system": "CYPES", "assay": "Post-emergence herbicidal action", "assay_type": "in vivo, Cyperus esculentus", "details": "20 g a.i./ha, comparative experiment", "method": "Seeds of monocotyledonous and dicotyledonous weed and crop plants are laid out in sandy loam soil in wood-fibre pots, covered with soil and cultivated in a greenhouse under good growth conditions. 2 to 3 weeks after sowing, the test plants are treated at the one-leaf stage. The compounds of the invention, formulated in the form of wettable powders (WP) or as emulsion concentrates (EC), are then sprayed onto the green parts of the plants in the form of an aqueous suspension or emulsion at a water application rate equating to 600 to 800 l/ha, with addition of 0.2% wetting agent. After the test plants have been left to stand in the greenhouse under optimal growth conditions for about 3 weeks, the action of the preparations is assessed visually in comparison to untreated controls (herbicidal action in percent (%): 100% activity=the plants have died, 0% activity=like control plants). […] The tables below illustrate, in an illustrative manner, the post-emergence herbicidal action of the compounds of the invention, the herbicidal activity being stated in percent. In the experiments that follow, the herbicidal action of the compounds of the invention and that of the corresponding known racemic compounds closest from WO2012126932 and WO2018202535 were compared under the above-specified conditions by the pre-emergence and post-emergence method. […]"}, "CYPES [3]": {"test_system": "CYPES", "assay": "Pre-emergence herbicidal action", "assay_type": "in vivo, Cyperus esculentus", "details": "20 g a.i./ha, comparative experiment", "source_text": "as §1"}, "SETVI [4]": {"test_system": "SETVI", "assay": "Post-emergence herbicidal action", "assay_type": "in vivo, Setaria viridis", "details": "5 g a.i./ha, comparative experiment", "method": "(§2) Seeds of monocotyledonous and dicotyledonous weed and crop plants are laid out in sandy loam soil in wood-fibre pots, covered with soil and cultivated in a greenhouse under good growth conditions. 2 to 3 weeks after sowing, the test plants are treated at the one-leaf stage. The compounds of the invention, formulated in the form of wettable powders (WP) or as emulsion concentrates (EC), are then sprayed onto the green parts of the plants in the form of an aqueous suspension or emulsion at a water application rate equating to 600 to 800 l/ha, with addition of 0.2% wetting agent. After the test plants have been left to stand in the greenhouse under optimal growth conditions for about 3 weeks, the action of the preparations is assessed visually in comparison to untreated controls (herbicidal action in percent (%): 100% activity=the plants have died, 0% activity=like control plants). […] The tables below illustrate, in an illustrative manner, the post-emergence herbicidal action of the compounds of the invention, the herbicidal activity being stated in percent. In the experiments that follow, the herbicidal action of the compounds of the invention and that of the corresponding known racemic compounds closest from WO2012126932 and WO2018202535 were compared under the above-specified conditions by the pre-emergence and post-emergence method. The example numbers given in the tables relate to the compounds disclosed in the respective documents."}, "ZEAMX [5]": {"test_system": "ZEAMX", "assay": "Pre-emergence damage to crop plants", "assay_type": "in vivo, Zea mays", "details": "320 g a.i./ha, comparative experiment", "source_text": "as §1"}, "MATIN": {"test_system": "MATIN", "assay": "Pre-emergence herbicidal action", "assay_type": "in vivo, Matricaria inodora", "details": "20 g a.i./ha, comparative experiment", "source_text": "as §1"}, "VERPE [6]": {"test_system": "VERPE", "assay": "Post-emergence herbicidal action", "assay_type": "in vivo, Veronica persica", "details": "5 g a.i./ha, comparative experiment", "method": "as §2"}, "ZEAMX [7]": {"test_system": "ZEAMX", "assay": "Post-emergence damage to crop plants", "assay_type": "in vivo, Zea mays", "details": "20 g a.i./ha, comparative experiment", "method": "as §2"}, "ALOMY": {"test_system": "ALOMY", "assay": "Pre-emergence herbicidal action", "assay_type": "in vivo, Alopecurus myosuroides", "details": "20 g a.i./ha, comparative experiment", "source_text": "as §1"}, "STEME [8]": {"test_system": "STEME", "assay": "Post-emergence herbicidal action", "assay_type": "in vivo, Stellaria media", "details": "5 g a.i./ha, comparative experiment", "method": "as §2"}, "SETVI [9]": {"test_system": "SETVI", "assay": "Pre-emergence herbicidal action", "assay_type": "in vivo, Setaria viridis", "details": "20 g a.i./ha, comparative experiment", "source_text": "as §1"}, "VERPE [10]": {"test_system": "VERPE", "assay": "Pre-emergence herbicidal action", "assay_type": "in vivo, Veronica persica", "details": "comparative experiment", "source_text": "as §1"}, "AVEFA": {"test_system": "AVEFA", "assay": "Pre-emergence herbicidal action", "assay_type": "in vivo, Avena fatua", "details": "20 g a.i./ha, comparative experiment", "source_text": "as §1"}}, "data": [{"smiles": "Cc1nnc(NC(=O)c2ccc(C(F)(F)F)c([S+](C)[O-])c2Cl)o1", "note": "(racemic) [2-360, from WO2012126932, 2-chloro-N-(5-methyl-1,3,4-oxadiazol-2-yl)-3-[(rac)-methylsulfinyl]-4-(trifluoromethyl)benzamide, reference compound]", "values": [{"measurement": "Herbicidal action against POLCO", "setting": "POLCO", "value": 20, "unit": "%"}, {"measurement": "Herbicidal action against STEME", "setting": "STEME [1]; 20 g a.i./ha", "value": 0, "unit": "%"}, {"measurement": "Herbicidal action against STEME", "setting": "STEME [1]; 80 g a.i./ha", "value": 70, "unit": "%"}, {"measurement": "Herbicidal action against STEME", "setting": "STEME [1]; 320 g a.i./ha", "value": 70, "unit": "%"}, {"measurement": "Herbicidal action against CYPES", "setting": "CYPES [2]", "value": 50, "unit": "%"}, {"measurement": "Herbicidal action against CYPES", "setting": "CYPES [3]", "value": 70, "unit": "%"}, {"measurement": "Herbicidal action against SETVI", "setting": "SETVI [4]", "value": 80, "unit": "%"}, {"measurement": "Herbicidal action against ZEAMX", "setting": "ZEAMX [5]", "value": 60, "unit": "%"}, {"measurement": "Herbicidal action against MATIN", "setting": "MATIN", "value": 70, "unit": "%"}, {"measurement": "Herbicidal action against VERPE", "setting": "VERPE [6]", "value": 20, "unit": "%"}, {"measurement": "Damage to ZEAMX", "setting": "ZEAMX [7]", "value": 20, "unit": "%"}, {"measurement": "Herbicidal action against ALOMY", "setting": "ALOMY", "value": 30, "unit": "%"}, {"measurement": "Herbicidal action against STEME", "setting": "STEME [8]", "value": 0, "unit": "%"}, {"measurement": "Herbicidal action against SETVI", "setting": "SETVI [9]", "value": 50, "unit": "%"}, {"measurement": "Herbicidal action against VERPE", "setting": "VERPE [10]; 20 g a.i./ha", "value": 0, "unit": "%"}, {"measurement": "Herbicidal action against VERPE", "setting": "VERPE [10]; 80 g a.i./ha", "value": 10, "unit": "%"}, {"measurement": "Herbicidal action against AVEFA", "setting": "AVEFA", "value": 0, "unit": "%"}]}]}
